Our source for the EC50 values is patent US20220233549A1, “METHOD FOR ALPHAVIRUS INHIBITION” (priority 2019, published 2022).

The EC50 is the concentration at which the effect is half-maximal. A low value points to an effect from little substance.

This experiment relates to CHIKV 181/clone25. The experiment in a line: CHIKV cytopathic effect (CPE) protection assay in Vero cells. The conditions noted are these: Chikungunya virus; CHIKV 181/clone25, Vero cells, MOI=0.01, 48 hrs, protection from CPE (crystal violet, absorbance 595nm). Type of experiment: cell-based. For orientation: Damage to the host cells serves as the signal in cytopathic effect assays.
Compound `CN1C(=O)C(CC(=O)NC2=CCCCC2)Sc2ncccc21` (centres unmarked) [Example 20, N-(cyclohex-1-en-1-yl)-2-(1-methyl-2-oxo-2,3-dihydro-1H-pyrido[2,3-b][1,4]thiazin-3-yl)acetamide] returned an EC50 of 10 to 49.9 µM. In the case of `O=C(CC1Sc2ncccc2NC1=O)NCC1CCC(F)(F)CC1` (centres unmarked) [Example 60, N-((4,4-difluorocyclohexyl)methyl)-2-(2-oxo-2,3-dihydro-1H-pyrido[2,3-b][1,4]thiazin-3-yl)acetamide] it was 10 to 49.9 µM; in that of `CN1C(=O)C(CC(=O)NC2CCCCCC2)Sc2ncccc21` (centres unmarked) [Example 23, N-cycloheptyl-2-(1-methyl-2-oxo-2,3-dihydro-1H-pyrido[2,3-b][1,4]thiazin-3-yl)acetamide], 10 to 49.9 µM. In the case of `CN1CCN(C(=O)CC2Sc3ncccc3N(C)C2=O)CC1` (centres unmarked) [Example 8, 1-methyl-3-(2-(4-methylpiperazin-1-yl)-2-oxoethyl)-1H-pyrido[2,3-b][1,4]thiazin-2(3H)-one] it was more than 100 µM. On to `CN(Cc1ccccc1)C(=O)CC1Sc2ncccc2N(C)C1=O` (centres unmarked) [Example 27, N-benzyl-N-methyl-2-(1-methyl-2-oxo-2,3-dihydro-1H-pyrido[2,3-b][1,4]thiazin-3-yl)acetamide], for which the EC50 is more than 100 µM. Take `Cc1ccc(CNC(=O)CC2Sc3ncccc3N(C)C2=O)o1` (centres unmarked) [Example 33, 2-(1-methyl-2-oxo-2,3-dihydro-1H-pyrido[2,3-b][1,4]thiazin-3-yl)-N-((5-methylfuran-2-yl)methyl)acetamide]: the EC50 is more than 100 µM.

The compound `O=C(CC1Sc2ncccc2NC1=O)NCC1CCOCC1` (centres unmarked) [Example 48, 2-(2-oxo-2,3-dihydro-1H-pyrido[2,3-b][1,4]thiazin-3-yl)-N-((tetrahydro-2H-pyran-4-yl)methyl)acetamide] yielded an EC50 of more than 100 µM. In the case of `O=C(CC1Sc2ncccc2NC1=O)NCc1cc(F)c(F)c(F)c1` (centres unmarked) [Example 51, 2-(2-oxo-2,3-dihydro-1H-pyrido[2,3-b][1,4]thiazin-3-yl)-N-(3,4,5-trifluorobenzyl)acetamide] it was 50 to 99.9 µM. `CN1C(=O)C(CC(=O)NC2CCCCC2)Sc2ncccc21` (centres unmarked) [Example 19, N-cyclohexyl-2-(1-methyl-2-oxo-2,3-dihydro-1H-pyrido[2,3-b][1,4]thiazin-3-yl)acetamide] gave an EC50 of more than 100 µM.

For the compound `COC(=O)CC1Sc2ncccc2NC1=O` (centres unmarked) [Example 3, methyl 2-(2-oxo-2,3-dihydro-1H-pyrido[2,3-b][1,4]thiazin-3-yl)acetate], the EC50 was more than 100 µM. `O=C(CC1Sc2ncccc2NC1=O)NCCCC(F)(F)F` (centres unmarked) [Example 72, 2-(2-oxo-2,3-dihydro-1H-pyrido[2,3-b][1,4]thiazin-3-yl)-N-(4,4,4-trifluorobutyl)acetamide] gave an EC50 of more than 100 µM. Consider `O=C(CC1Sc2ncccc2NC1=O)NCc1ccc(F)cc1` (centres unmarked) [Example 56, N-(4-fluorobenzyl)-2-(2-oxo-2,3-dihydro-1H-pyrido[2,3-b][1,4]thiazin-3-yl)acetamide], for which the EC50 is less than 10 µM. In the case of `O=C(CC1Sc2ncccc2NC1=O)NCC1CC=CCC1` (centres unmarked) [Example 86, N-(cyclohex-3-en-1-ylmethyl)-2-(2-oxo-2,3-dihydro-1H-pyrido[2,3-b][1,4]thiazin-3-yl)acetamide] it was less than 10 µM; in that of `O=C(CC1Sc2ncccc2NC1=O)NCC1CCCCC1` (centres unmarked) [Example 2, N-(cyclohexylmethyl)-2-(2-oxo-2,3-dihydro-1H-pyrido[2,3-b][1,4]thiazin-3-yl)acetamide], less than 10 µM. In the case of `O=C(CC1Cc2ncccc2NC1=O)NCc1ccc(F)cc1` (centres unmarked) [Example 90, N-(4-fluorobenzyl)-2-(2-oxo-1,2,3,4-tetrahydro-1,5-naphthyridin-3-yl)acetamide] it was 10 to 49.9 µM; in that of `O=C(CC1Sc2ncccc2NC1=O)NCC1CCCCCC1` (centres unmarked) [Example 62, N-(cycloheptylmethyl)-2-(2-oxo-2,3-dihydro-1H-pyrido[2,3-b][1,4]thiazin-3-yl)acetamide], 10 to 49.9 µM. Compound `CC1(C)CCC(CNC(=O)CC2Sc3ncccc3NC2=O)CC1` (centres unmarked) [Example 69, N-((4,4-dimethylcyclohexyl)methyl)-2-(2-oxo-2,3-dihydro-1H-pyrido[2,3-b][1,4]thiazin-3-yl)acetamide] displayed an EC50 of 10 to 49.9 µM. In the case of `CCN1C(=O)C(CC(=O)NCc2ccccc2)Sc2ncccc21` (centres unmarked) [Example 43, N-benzyl-2-(1-ethyl-2-oxo-2,3-dihydro-1H-pyrido[2,3-b][1,4]thiazin-3-yl)acetamide] it was more than 100 µM; in that of `O=C(CC1Sc2ncccc2NC1=O)NCCC1CCCCC1` (centres unmarked) [Example 58, N-(2-cyclohexylethyl)-2-(2-oxo-2,3-dihydro-1H-pyrido[2,3-b][1,4]thiazin-3-yl)acetamide], 10 to 49.9 µM.

Turning to `CCCOC1(CNC(=O)CC2Sc3ncccc3NC2=O)CCCCC1` (centres unmarked) [Example 81, 2-(2-oxo-2,3-dihydro-1H-pyrido[2,3-b][1,4]thiazin-3-yl)-N-((1-propoxycyclohexyl)methyl)ace-tamide], the EC50 lay within 10 to 49.9 µM. In the case of `O=C(CC1Sc2ncccc2NC1=O)NCc1cccc(F)c1` (centres unmarked) [Example 55, N-(3-fluorobenzyl)-2-(2-oxo-2,3-dihydro-1H-pyrido[2,3-b][1,4]thiazin-3-yl)acetamide] it was more than 100 µM.

Consider `CN1C(=O)C(CC(=O)NCc2ccccc2C(F)(F)F)Sc2ncccc21` (centres unmarked) [Example 25, 2-(1-methyl-2-oxo-2,3-dihydro-1H-pyrido[2,3-b][1,4]thiazin-3-yl)-N-(2-(trifluoromethyl)benzyl)aceta-mide], for which the EC50 was more than 100 µM. In the case of `O=C(CC1Sc2cnccc2NC1=O)NCC1CCCCC1` (centres unmarked) [Example 83, N-(cyclohexylmethyl)-2-(2-oxo-2,3-dihydro-1H-pyrido[3,4-b][1,4]thiazin-3-yl)acetamide] it was more than 100 µM. `COCCCNC(=O)CC1Sc2ncccc2N(C)C1=O` (centres unmarked) [Example 21, N-(3-methoxypropyl)-2-(1-methyl-2-oxo-2,3-dihydro-1H-pyrido[2,3-b][1,4]thiazin-3-yl)acetamide] displayed an EC50 of more than 100 µM. In the case of `CN1C(=O)C(CC(=O)N2CCCCC2)Sc2ncccc21` (centres unmarked) [Example 38, 1-methyl-3-(2-oxo-2-(piperidin-1-yl)ethyl)-1H-pyrido[2,3-b][1,4]thiazin-2(3H)-one] it was more than 100 µM. In the case of `O=C(CC1Cc2ncccc2NC1=O)NCC1(F)CCCCC1` (centres unmarked) [Example 89, N-((1-fluorocyclohexyl)methyl)-2-(2-oxo-1,2,3,4-tetrahydro-1,5-naphthyridin-3-yl)acetamide] it was 10 to 49.9 µM.

For `CC1CCCCN1CCNC(=O)CC1Sc2ncccc2N(C)C1=O` (centres unmarked) [Example 40, 2-(1-methyl-2-oxo-2,3-dihydro-1H-pyrido[2,3-b][1,4]thiazin-3-yl)-N-(2-(2-methylpiperidin-1-yl)ethyl)acetamide], the EC50 is more than 100 µM. With `CCN1C(=O)C(CC(=O)NCC2CC2)Sc2ncccc21` (centres unmarked) [Example 46, N-(cyclopropylmethyl)-2-(1-ethyl-2-oxo-2,3-dihydro-1H-pyrido[2,3-b][1,4]thiazin-3-yl)acetamide], the EC50 was more than 100 µM. `NC1(CNC(=O)CC2Sc3ncccc3NC2=O)CCCCC1` (centres unmarked) [Example 80, N-((1-aminocyclohexyl)methyl)-2-(2-oxo-2,3-dihydro-1H-pyrido[2,3-b][1,4]thiazin-3-yl)acetamide]: the EC50 is more than 100 µM.

With `O=C(CC1Sc2ccccc2NC1=O)NCC1CCCCC1` (centres unmarked) [Example 59, N-(cyclohexylmethyl)-2-(3-oxo-3,4-dihydro-2H-benzo[b][1,4]thiazin-2-yl)acetamide], the EC50 is more than 100 µM.

`CC1CCCN(C(=O)CC2Sc3ncccc3N(C)C2=O)C1` (centres unmarked) [Example 35, 1-methyl-3-(2-(3-methylpiperidin-1-yl)-2-oxoethyl)-1H-pyrido[2,3-b][1,4]thiazin-2(3H)-one]: the half-maximal effective concentration (EC50) is more than 100 µM. In the case of `CN1C(=O)C(CC(=O)NCc2cccs2)Sc2ncccc21` (centres unmarked) [Example 41, 2-(1-methyl-2-oxo-2,3-dihydro-1H-pyrido[2,3-b][1,4]thiazin-3-yl)-N-(thiophen-2-ylmethyl)acetamide] it was 10 to 49.9 µM; in that of `CCC1(CNC(=O)CC2Sc3ncccc3NC2=O)CCCCC1` (centres unmarked) [Example 76, N-((1-ethylcyclohexyl)methyl)-2-(2-oxo-2,3-dihydro-1H-pyrido[2,3-b][1,4]thiazin-3-yl)acetamide], less than 10 µM. In the case of `O=C(CC1Sc2ncccc2NC1=O)NCC1(O)CCCCC1` (centres unmarked) [Example 77, N-((1-hydroxycyclohexyl)methyl)-2-(2-oxo-2,3-dihydro-1H-pyrido[2,3-b][1,4]thiazin-3-yl)acetamide] it was less than 10 µM. In the case of `CN1C(=O)C(CC(=O)NCc2ccncc2)Sc2ncccc21` (centres unmarked) [Example 14, 2-(1-methyl-2-oxo-2,3-dihydro-1H-pyrido[2,3-b][1,4]thiazin-3-yl)-N-(pyridin-4-ylmethyl)acetamide] it was more than 100 µM; in that of `CN1C(=O)C(CC(=O)NCC2CCCO2)Sc2ncccc21` (centres unmarked) [Example 9, 2-(1-methyl-2-oxo-2,3-dihydro-1H-pyrido[2,3-b][1,4]thiazin-3-yl)-N-((tetrahydrofuran-2-yl)methyl)acetamide], more than 100 µM; in that of `O=C(CC1Nc2ncccc2NC1=O)NCC1CCCCC1` (centres unmarked) [Example 65, N-(cyclohexylmethyl)-2-(2-oxo-1,2,3,4-tetrahydropyrido[2,3-b]pyrazin-3-yl)acetamide], more than 100 µM. Consider `O=C(CC1Sc2ncccc2NC1=O)NCCC(F)(F)F` (centres unmarked) [Example 74, 2-(2-oxo-2,3-dihydro-1H-pyrido[2,3-b][1,4]thiazin-3-yl)-N-(3,3,3-trifluoropropyl)acetamide], for which the EC50 was more than 100 µM. In the case of `O=C(CC1Sc2ccncc2NC1=O)NCC1CCCCC1` (centres unmarked) [Example 84, N-(cyclohexylmethyl)-2-(3-oxo-3,4-dihydro-2H-pyrido[4,3-b][1,4]thiazin-2-yl)acetamide] it was more than 100 µM; in that of `O=C(CC1Sc2ncccc2NC1=O)NCc1cccc(Cl)c1` (centres unmarked) [Example 54, N-(3-chlorobenzyl)-2-(2-oxo-2,3-dihydro-1H-pyrido[2,3-b][1,4]thiazin-3-yl)acetamide], more than 100 µM; in that of `CCC(C)NC(=O)CC1Sc2ncccc2N(C)C1=O` (centres unmarked) [Example 16, N-(sec-butyl)-2-(1-methyl-2-oxo-2,3-dihydro-1H-pyrido[2,3-b][1,4]thiazin-3-y)acetamide], more than 100 µM.
